Legend:
[1] = system: Pyricularia oryzae Carvara KA301; type: in vivo; conditions: for C. V. (%) RCB: 50 ppm, control value, rice blast
Botrytis cinerae = experiment: Fungicidal activity against cucumber gray mold rot (CGM) disease; type: in vivo; conditions: 50 ppm, control value
Experimental: Botrytis cinerae, which was isolated from cucumber infected thereby, was inoculated on a PDA agar medium and cultured under a 12L/12D cycle at 25° C. for 15 days to form spore. The spores were scraped, filtered through a gauze and then suspended in potato dextrose liquid medium at a concentration of 1×10^6 spore/ml. The spore suspension was sprayed on a cucumber plant having one leaf. The cucumber plant was held in a humidified room at 20° C. for 3 days. L.A. on a leaf was measured to calculate an C.V.

Rhizoctonia solani AG-1 = experiment: Fungicidal activity against rice sheath blight (RSB) disease; conditions: 50 ppm, control value
Experimental: 50 ml of the resulting solution was sprayed on leaves of a host plant. The plant was kept at room temperature for 24 hours to let the solvent evaporate, and then, a pathogenic fungus was inoculated thereonto. The plant was held in a humidity chamber for 24 hours, transferred to an plant growth room kept at 20 to 27° C. and a relative humidity of 60 to 80% and kept to induce disease. Subsequently, the lesion area(L.A.) attacked by the pathogenic fungus was measured according to a method of Cho(Cho, K. Y., Search Report by Korea Research Institute of Chemical Technology (1989))”. This procedure was repeated twice for each test. 10% Acetone solution containing 250 ppm of Tween-20 was used as a control.
The fungicidal activity of the compound of the present invention is repressed by a control value (C.V.) calculated as; [formula]
Rhizoctonia solani AG-1 was cultured on a PDA medium(potato 200 g, dextrose 20 g, agar 20 g and distilled water 1 l) for 3 days and the agar disc (diameter 0.6 cm) was inoculated and cultured on sterilized wheat bran medium in a 1 l bottle at 26 to 28° C. for 7 days. A mycelial mass was ground using a homogenizer, inoculated uniformly on soil of a pot wherein a Nakdong rice plant having 2 or 3 leaves and an height of 5 cm grew, and kept in humidity polyvinyl chamber for 5 days to induce RSB. L.A. on a leaf sheath was measured to calculate an C.V.

Puccinia recondita = experiment: Fungicidal activity against wheat leaf rust (WLR) disease; type: in vivo; conditions: for C. V. (%), Fungicidal Activities against WLB at 10 ppm: Table 8 (Test Example 5); for C. V. (%) WLR: 50 ppm, control value, wheat leaf rust
Erysiphae graminis = experiment: Fungicidal activity against barley powdery mildew (BPM) disease; type: in vivo; conditions: for C. V. (%), Fungicidal activities against TLB at 10 ppm: Table 9 (Test Example 6); for C. V. (%) BPM: 50 ppm, control value, barley powdery mildew
Experimental: Erysiphae graminis was subcultured on a wheat plant in a laboratory. 15 g of barley seeds was sowed in a pot (diameter 6.5 cm) and cultured in a greenhouse for 7 days to obtain a barley plant having only a primary leaf. The barley plant was inoculated with spores by shaking thereover another plant infected by BPM. The inoculated barley plant was cultured in an incubator maintained at a temperature of 22 to 24° C. and a relative humidity of 50% for 7 days to induce BPM. L.A. on the leaf was measured to calculate an C.V.

Phytophthora infestans = type: in vivo; conditions: 50 ppm; control value, tomato late blight
[2] = 10 ppm, sprayed on Nakdong rice plant, control value from lesion area

| Structure (SMILES) | C. V. (%) RCB [1] | C. V. (%) CGM (Botrytis cinerae) | C. V. (%) RSB (Rhizoctonia solani AG-1) | C. V. (%), Fungicidal Activities against WLB at 10 ppm (Puccinia recondita) | C. V. (%) WLR (Puccinia recondita) | C. V. (%), Fungicidal activities against TLB at 10 ppm (Erysiphae graminis) | C. V. (%) BPM (Erysiphae graminis) | C. V. (%) TLB (Phytophthora infestans) | C. V. (%) Fungicidal Activities against RCB at 10 ppm [1, 2] | C. V. (%) Fungicidal Activities against RCB at 10 ppm (TABLE 6) [1, 2] |
| --- | --- | --- | --- | --- | --- | --- | --- | --- | --- | --- |
| CON=C(C(=O)OC)c1ccccc1COc1cccc(OC(F)=C(c2cc(Cl)cc(Cl)c2)C(F)(F)F)c1 [Compound 103] | 0% | 0% | 60% | 96% | 100% | 100% | 100% | 3% |  |  |
| CO/N=C(/C(=O)OC)c1ccccc1COc1cccc(OC(F)=C(c2ccc(C)c(C)c2)C(F)(F)F)c1 [Compound 65] | 91% | 16% | 90% | 100% | 99% | 94% | 99% | 33% |  |  |
| CNC(=O)/C(=C/OC)c1ccccc1COc1cccc(OC(F)=C(c2ccccc2)C(F)(F)F)c1 [Compound 46, (2E)-N-methyl-3-methoxy-2-{2′-{3″-(2′″-fluoro-1′″-trifluoromethylstyryl)-2′″-oxy}phenoxymethyl}phenyl-2-propenoamide] | 0% | 27% | 20% |  | 53% |  | 0% | 11% |  |  |
| CON=C(C(=O)OC)c1ccccc1COc1cccc(OC(F)=Cc2ccccc2)c1 [Compound 3] | 100% | 15% | 70% |  | 93% |  | 41% | 70% |  |  |
| CON=C(C(=O)OC)c1ccccc1COc1cccc(OC(F)=C(c2ccc3c(c2)OCO3)C(F)(F)F)c1 [Compound 82] | 50% | 0% | 45% | 96% | 98% | 97% | 100% | 0% |  |  |
| CCc1ccc(C(=C(F)Oc2cccc(OCc3ccccc3C(=NOC)C(=O)OC)c2)C(F)(F)F)cc1 [Compound 60] | 0% | 0% | 40% | 93% | 98% | 97% | 100% | 18% |  |  |
| COC=C(C(=O)OC)c1ccccc1COc1cccc(OC(F)=C(c2ccc(Cl)cc2)C(F)(F)F)c1 [Compound 88] | 92% | 25% | 25% | 93% | 98% | 100% | 100% | 31% |  |  |
| COC=C(C(=O)OC)c1ccccc1COc1cccc(OC(F)=Cc2cc(C)cc(C)c2)c1 [Compound 17] | 90% | 50% | 60% | 99% | 100% |  | 99% | 81% | 95% | 95% |
| COC(=O)C(=CSC)c1ccccc1COc1cccc(OC(F)=Cc2ccccc2)c1 [Compound 4] | 90% | 33% | 75% |  | 85% |  | 91% | 86% |  |  |
| CNC(=O)C(=COC)c1ccccc1COc1cccc(OC(F)=Cc2cc(C)cc(C)c2)c1 [Compound 18] | 26% | 21% | 5% |  | 0% |  | 0% | 6% |  |  |

Reference: patent publication US6444850B1, “Fungicidial compounds having a fluorovinyloxphyenyl moiety and process for the preparation thereof” (priority 1997, dated 2002)
